PMC11106739, “Discovery and Derivatization of Tridecaptin Antibiotics with Altered Host Specificity and Enhanced Bioactivity” (ACS Chemical Biology, 2024)
≈ marks a conversion by molar mass, not a printed value. Where a SMILES comes first, the peptide text is derived from it. [ ]: non-standard residue; d: D form. The star is where a group is joined. d(aIle) = CC[C@H](C)[C@@H](N)C(=O)O; dDab = NCC[C@@H](N)C(=O)O; Octanoyl = CCCCCCCC(=O)*; Dab = NCC[C@H](N)C(=O)O

Columns and labels:
S. aureus ATCC 29213 [1] = assay: LIVE/DEAD staining (SYTO 9 / propidium iodide); format: cell-based, Staphylococcus aureus; conditions: S. aureus ATCC 29213, 1 × MIC, 15 min, microscopy
Protocol: This assay was performed according to a previously described procedure.[55],[56] Briefly, overnight cultures of E. coli ATCC 25922 and S. aureus ATCC 29213 were diluted to an OD600 of 0.2 in MHB and mixed with 1 × MIC of Oct-TriA1, Oct-TriA5, and Oct-TriD. Nisin and polymyxin B were used as positive controls at a concentration of 2-fold MIC. At the same time, green fluorescent nucleic acid stain SYTO 9 (excitation, 450–490 nm; emission, 500–550 nm) and red fluorescent nucleic acid stain propidium iodide (excitation, 574–599 nm; emission, 612–682 nm) (LIVE/DEAD Baclight Bacterial Viability Kit, Invitrogen) were added to the above cell suspensions. After mixing and incubating for 15 min in the dark at RT, cells were briefly sedimented via centrifugation and resuspended in fresh MHB. Then, the cell suspensions were loaded on 1.5% agarose pads and analyzed by a Zeiss Imager M2 microscope. Confocal images were obtained at 4 random locations for each sample and visualized using FIJI version 1.51H.[57]

P. aeruginosa PAO1 = format: cell-based, Pseudomonas aeruginosa; conditions: PAO1, 20 h
Method in brief: (§1)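 Values are visually read MICs from CLSI-style microdilution, final compound concentrations spanning 0.06 to 64 μg/mL in cation-adjusted medium, incubated 20 h at 35 °C.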

P. aeruginosa 1218019 = format: cell-based, Pseudomonas aeruginosa; conditions: 1218019, 20 h
Method in brief: as §1

P. aeruginosa 1226072 = format: cell-based, Pseudomonas aeruginosa; conditions: 1226072, 20 h
Method in brief: as §1

E. coli 1214245 = format: cell-based, Escherichia coli; conditions: 1214245, 20 h
Method in brief: as §1

E. coli 1220120 = format: cell-based, Escherichia coli; conditions: 1220120, 20 h
Method in brief: as §1

E. coli ATCC 25922 = format: cell-based, Escherichia coli; conditions: ATCC 25922, 20 h
Method in brief: as §1

A. baumannii IHMA 777621 = format: cell-based, Acinetobacter baumannii; conditions: IHMA 777621, 20 h
Method in brief: as §1

A. baumannii HUMC1 = format: cell-based, Acinetobacter baumannii; conditions: HUMC1, 20 h
Method in brief: as §1

A. baumannii ATCC 17978 = format: cell-based, Acinetobacter baumannii; conditions: ATCC 17978, 20 h
Method in brief: as §1

E. faecalis ATCC 29212 = format: cell-based, Enterococcus faecalis; conditions: ATCC 29212, 20 h
Method in brief: as §1

ATCC 25922 = format: cell-based, Enterococcus faecalis; conditions: ATCC 25922, 20 h
Method in brief: as §1

K. pneumoniae 1228586 = format: cell-based, Klebsiella pneumoniae; conditions: 1228586, 20 h
Method in brief: as §1

K. pneumoniae 1227947 = format: cell-based, Klebsiella pneumoniae; conditions: 1227947, 20 h
Method in brief: as §1

K. pneumoniae ATCC 13883 = format: cell-based, Klebsiella pneumoniae; conditions: ATCC 13883, 20 h
Method in brief: as §1

S. aureus UAMS-1625 = format: cell-based, Staphylococcus aureus; conditions: S. aureus UAMS-1625 (BV18); CLSI broth dilution, cation-adjusted Mueller Hinton broth, 20 h, 35 °C, read visually
Method in brief: as §1

S. aureus 1126387 = format: cell-based, Staphylococcus aureus; conditions: 1126387, 20 h
Method in brief: as §1

S. aureus ATCC 29213 [2] = format: cell-based, Staphylococcus aureus; conditions: ATCC 29213, 20 h
Method in brief: as §1

E. faecium ATCC 51559 = format: cell-based, Enterococcus faecium; conditions: ATCC 51559, 20 h
Method in brief: as §1

E. faecium IHMA 890472 = format: cell-based, Enterococcus faecium; conditions: IHMA 890472, 20 h
Method in brief: as §1

[3] = system: Gram-positive lipid II / S. aureus USA300 (MRSA); assay: Lipid II antagonization assay; format: cell-based, Staphylococcus aureus; conditions: compound at 8x MIC, 5-fold molar excess of Gram-positive lipid II, MHB with 0.002% polysorbate-80, 37 °C, 18 h, resazurin, triplicates
Protocol: Laboratory Institute (CLSI) guidelines. Gram-positive lipid II, containing lysine at position 3 of the pentapeptide, was prepared by total chemical synthesis.1,2 Lipid II in 1 : 1 chloroform : methanol (v/v) was added to a polypropylene 96-well plate (5-fold molar excess compared to test antibiotics) and the organic solvent was allowed to evaporate. Oct-TriA5 and vancomycin in MHB (50 µL, 16xMIC) were added to the wells with the 5-fold molar excess of pure Gram-positive lipid II in triplicates and to the control wells without lipid II. Single colony of S. aureus USA300 (MRSA) from a fresh blood agar plate was suspended in TSB and grown to an OD600 of 0.5. The bacterial culture then was diluted in MHB with 0.002% polysorbate-80 to reach 10^6 CFU/mL and 50 µL were mixed with test compounds to achieve the final concentration of 8xMIC for all tested compounds. The plate was incubated at 37°C for 18 h with constant shaking (600 rpm) and subsequently inspected for visible bacterial growth. To visualize the viability of the indicator strain, resazurin sodium salt solution (Merck, Dorset, UK) was added to the cultures to achieve the final concentration of 0.0015% (w/v) and incubated at RT for 1 h.
Figure S4. HPLC trace showing the reinjection of purified Oct-TriD (3). The peptide eluted as a single peak at 17.263 min using the HPLC method A.
Figure S5. […]

[4] = system: Gram-negative ESKAPE pathogens; format: cell-based; conditions: 20 h
Protocol: All minimum inhibitory concentrations (MICs) were determined according to the Clinical and Standards Laboratory Institute (CLSI) guidelines. In brief, agar plates were inoculated from glycerol stocks and incubated overnight at 35 °C. Peptide DMSO stocks were dispensed into 96-well round-bottom plates using a TECAN D300e dispenser. Colistin sulfate (Sigma-Aldrich) was dissolved in water and serially diluted in a cation-adjusted Mueller Hinton broth (10 μL per well). Final concentrations of the test compounds were 0.06 to 64 μg/mL. Inocula were prepared by direct colony suspension in NaCl at 0.5 MacFarland, which was further diluted 200-fold in cation-adjusted Mueller Hinton broth for a target inoculum of 2 × 10^5 colony forming units (CFUs)/mL. 100 μL portion of the prepared inoculum was added to each well of the prepared plates containing the test compounds. Plates were sealed with parafilm and incubated for 20 h at 35 °C. Images of all plates were recorded, and MIC was assessed visually.

S. aureus USA300 (MRSA) = format: cell-based, Staphylococcus aureus; conditions: USA300, 18 h

CCCCCCCC(=O)N[C@H](Cc1ccccc1)C(=O)N[C@H](CCN)C(=O)N[C@@H](C(=O)N[C@H](CO)C(=O)N[C@H](Cc1c[nH]c2ccccc12)C(=O)N[C@@H](CO)C(=O)N[C@@H](CO)C(=O)N[C@H](CCN)C(=O)N[C@@H](Cc1c[nH]c2ccccc12)C(=O)N[C@@H](CO)C(=O)N[C@H](C(=O)N[C@@H](C(=O)N[C@@H](CCN)C(=O)O)[C@@H](C)CC)C(C)C)[C@H](C)CC [Oct-TriD] (Octanoyl-[dF][dDab][dI][dS][dW]SS[dDab]WSV[d(aIle)][Dab]-OH)
LIVE/DEAD staining, membrane integrity of S. aureus cells (S. aureus ATCC 29213 [1]): had lysed
MIC (P. aeruginosa PAO1): >64 µg/mL
MIC (P. aeruginosa 1218019): 32 µg/mL (≈ 19.5 µM)
MIC (P. aeruginosa 1226072): 32 µg/mL (≈ 19.5 µM)
MIC (E. coli 1214245): 16 µg/mL (≈ 9.77 µM)
MIC (E. coli 1220120): 16 µg/mL (≈ 9.77 µM)
MIC (E. coli ATCC 25922): 32 µg/mL (≈ 19.5 µM)
MIC (A. baumannii IHMA 777621): 8 µg/mL (≈ 4.88 µM)
MIC (A. baumannii HUMC1): 16 µg/mL (≈ 9.77 µM)
MIC (A. baumannii ATCC 17978): 16 µg/mL (≈ 9.77 µM)
MIC (E. faecalis ATCC 29212): 8 µg/mL (≈ 4.88 µM)
MIC (ATCC 25922): 8 µg/mL (≈ 4.88 µM)
MIC (K. pneumoniae 1228586): 64 µg/mL (≈ 39.1 µM)
MIC (K. pneumoniae 1227947): >64 µg/mL
MIC (K. pneumoniae ATCC 13883): 8 µg/mL (≈ 4.88 µM)
MIC (S. aureus UAMS-1625): 16 µg/mL (≈ 9.77 µM)
MIC (S. aureus 1126387): 16 µg/mL (≈ 9.77 µM)
MIC (S. aureus ATCC 29213 [2]): 8 µg/mL (≈ 4.88 µM)
MIC (E. faecium ATCC 51559): 4 µg/mL (≈ 2.44 µM)
MIC (E. faecium IHMA 890472): 4 µg/mL (≈ 2.44 µM)

CCCCCCCC(=O)N[C@@H](C(=O)N[C@H](CCN)C(=O)NCC(=O)N[C@H](CO)C(=O)N[C@H](Cc1c[nH]c2ccccc12)C(=O)N[C@@H](CO)C(=O)N[C@@H](CCN)C(=O)N[C@H](CCN)C(=O)N[C@@H](Cc1ccccc1)C(=O)N[C@@H](CCC(=O)O)C(=O)N[C@H](C(=O)N[C@@H](C(=O)N[C@@H](C)C(=O)O)[C@@H](C)CC)C(C)C)C(C)C [Oct-TriA1] (Octanoyl-[dV][dDab]G[dS][dW]S[Dab][dDab]FEV[d(aIle)]A-OH)
LIVE/DEAD staining, membrane integrity of S. aureus cells (S. aureus ATCC 29213 [1]): still alive
MIC (P. aeruginosa PAO1): 64 µg/mL (≈ 42.1 µM)
MIC (P. aeruginosa 1218019): 4 µg/mL (≈ 2.63 µM)
MIC (P. aeruginosa 1226072): 8 µg/mL (≈ 5.26 µM)
MIC (E. coli 1214245): 2 µg/mL (≈ 1.32 µM)
MIC (E. coli 1220120): 2 µg/mL (≈ 1.32 µM)
MIC (E. coli ATCC 25922): 2 µg/mL (≈ 1.32 µM)
MIC (A. baumannii IHMA 777621): 8 µg/mL (≈ 5.26 µM)
MIC (A. baumannii HUMC1): 16 µg/mL (≈ 10.5 µM)
MIC (A. baumannii ATCC 17978): 8 µg/mL (≈ 5.26 µM)
MIC (E. faecalis ATCC 29212): 32 µg/mL (≈ 21 µM)
MIC (ATCC 25922): 32 µg/mL (≈ 21 µM)
MIC (K. pneumoniae 1228586): 4 µg/mL (≈ 2.63 µM)
MIC (K. pneumoniae 1227947): 4 µg/mL (≈ 2.63 µM)
MIC (K. pneumoniae ATCC 13883): 4 µg/mL (≈ 2.63 µM)
MIC (S. aureus UAMS-1625): 32 µg/mL (≈ 21 µM)
MIC (S. aureus 1126387): 32 µg/mL (≈ 21 µM)
MIC (S. aureus ATCC 29213 [2]): 32 µg/mL (≈ 21 µM)
MIC (E. faecium ATCC 51559): 32 µg/mL (≈ 21 µM)
MIC (E. faecium IHMA 890472): 16 µg/mL (≈ 10.5 µM)

CN[C@H](CC(C)C)C(=O)N[C@H]1C(=O)N[C@@H](CC(N)=O)C(=O)N[C@H]2C(=O)N[C@H]3C(=O)N[C@H](C(=O)N[C@H](C(=O)O)c4cc(O)cc(O)c4-c4cc3ccc4O)[C@H](O)c3ccc(c(Cl)c3)Oc3cc2cc(c3O[C@@H]2O[C@H](CO)[C@@H](O)[C@H](O)[C@H]2O[C@H]2C[C@](C)(N)[C@H](O)[C@H](C)O2)Oc2ccc(cc2Cl)[C@H]1O [vancomycin, reference compound]
growth of S. aureus USA300 (MRSA) after addition of lipid II [3]: not inhibited

CCCCCCCC(=O)N[C@@H](C(=O)N[C@H](CCN)C(=O)NCC(=O)N[C@H](CO)C(=O)N[C@H](Cc1c[nH]c2ccccc12)C(=O)N[C@@H](CO)C(=O)N[C@@H](CCN)C(=O)N[C@H](CCN)C(=O)N[C@@H](Cc1c[nH]c2ccccc12)C(=O)N[C@@H](CCC(=O)O)C(=O)N[C@H](C(=O)N[C@@H](C(=O)N[C@@H](C)C(=O)O)[C@@H](C)CC)C(C)C)C(C)C [Oct-TriA5] (Octanoyl-[dV][dDab]G[dS][dW]S[Dab][dDab]WEV[d(aIle)]A-OH)
MICs, range over Gram-negative pathogens [4]: 2 to 16 µg/mL
growth of S. aureus USA300 (MRSA) after addition of lipid II [3]: not inhibited
LIVE/DEAD staining, membrane integrity of S. aureus cells (S. aureus ATCC 29213 [1]): had lysed
MIC (P. aeruginosa PAO1): 16 µg/mL (≈ 10.3 µM)
MIC (P. aeruginosa 1218019): 4 µg/mL (≈ 2.56 µM)
MIC (P. aeruginosa 1226072): 8 µg/mL (≈ 5.13 µM)
MIC (E. coli 1214245): 4 µg/mL (≈ 2.56 µM)
MIC (E. coli 1220120): 4 µg/mL (≈ 2.56 µM)
MIC (E. coli ATCC 25922): 2 µg/mL (≈ 1.28 µM)
MIC (A. baumannii IHMA 777621): 4 µg/mL (≈ 2.56 µM)
MIC (A. baumannii HUMC1): 8 µg/mL (≈ 5.13 µM)
MIC (A. baumannii ATCC 17978): 4 µg/mL (≈ 2.56 µM)
MIC (E. faecalis ATCC 29212): 8 µg/mL (≈ 5.13 µM)
MIC (ATCC 25922): 8 µg/mL (≈ 5.13 µM)
MIC (K. pneumoniae 1228586): 4 µg/mL (≈ 2.56 µM)
MIC (K. pneumoniae 1227947): 4 µg/mL (≈ 2.56 µM)
MIC (K. pneumoniae ATCC 13883): 4 µg/mL (≈ 2.56 µM)
MIC (S. aureus UAMS-1625): 8 µg/mL (≈ 5.13 µM)
MIC (S. aureus 1126387): 8 µg/mL (≈ 5.13 µM)
MIC (S. aureus ATCC 29213 [2]): 8 µg/mL (≈ 5.13 µM)
MIC (S. aureus USA300 (MRSA)): 8 µg/mL (≈ 5.13 µM)
MIC (E. faecium ATCC 51559): 8 µg/mL (≈ 5.13 µM)
MIC (E. faecium IHMA 890472): 8 µg/mL (≈ 5.13 µM)
